Values of other authors, collected in patent US20200254068A1, “METHODS FOR TREATING TRAUMATIC BRAIN INJURY” (LOMA LINDA UNIVERSITY, priority 2017, published 2020).

Details: given acutely, goal of reducing cerebral edema

Structure (SMILES) | mortality rate in clinical TBI trials | outcome in clinical TBI trials
C[C@@H]1C[C@H]2[C@@H]3CCC4=CC(=O)C=C[C@]4(C)[C@@]3(F)[C@@H](O)C[C@]2(C)[C@@]1(O)C(=O)CO [dexamethasone] | increase the mortality rate | 
CC(=O)[C@H]1CC[C@H]2[C@@H]3CCC4=CC(=O)CC[C@]4(C)[C@H]3CC[C@]12C [progesterone] |  | unsuccessful
